# From patent publication US20230096028A1, “BICYCLIC HETEROCYCLYL COMPOUNDS AND USES THEREOF” (Revolution Medicines, Inc., priority 2019, published 2023)
# Where a name gives a salt, the structure may show the parent alone.
# Key:
# [1] = target: T1, SOS1 catalytic domain (residues 564-1049) (Homo sapiens, UniProt Q07889); assay: Potency Assay: binding affinity to SOS1 using Surface Plasmon Resonance (SPR); parameters: SOS1 catalytic domain (residues 564-1049) immobilized on a sensor chip; conditions: immobilized SOS1 catalytic domain (residues 564-1049), read-out: SOS1 SPR Equilibrium Kd
# T1 sequence (Q07889 564-1049): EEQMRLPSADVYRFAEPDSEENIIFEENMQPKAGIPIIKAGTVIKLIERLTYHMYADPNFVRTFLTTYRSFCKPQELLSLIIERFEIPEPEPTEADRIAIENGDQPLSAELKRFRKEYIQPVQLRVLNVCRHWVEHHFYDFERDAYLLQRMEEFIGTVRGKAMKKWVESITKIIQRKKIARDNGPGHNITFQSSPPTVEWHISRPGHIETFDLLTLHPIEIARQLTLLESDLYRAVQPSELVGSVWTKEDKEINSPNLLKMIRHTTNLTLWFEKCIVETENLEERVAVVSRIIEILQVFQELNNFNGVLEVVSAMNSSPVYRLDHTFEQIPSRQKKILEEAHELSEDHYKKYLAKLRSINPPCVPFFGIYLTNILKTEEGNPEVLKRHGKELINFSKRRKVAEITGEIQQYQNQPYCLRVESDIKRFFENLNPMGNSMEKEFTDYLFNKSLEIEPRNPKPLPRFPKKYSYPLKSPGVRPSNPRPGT
# Experimental: Data was reported as equilibrium dissociation constant (Kd) values.
# Using a GE Biacore 8K SPR instrument, avi-tagged SOS1 catalytic domain protein was immobilized to a level of approximately 6000 response units (RU) on a streptavidin-coated SPR sensor chip in assay buffer containing 0.01 M HEPES, 0.15 M NaCl and 0.05% v/v Surfactant P20. […] For each test compound, a separate 0 μM sample was generated for use during subsequent double reference subtraction. Serially for each test compound, individual dilution samples were flowed over the immobilized SOS1 protein at a flow rate of 50 μL/minute to monitor the association with SOS1. Dissociation of bound test compound from the SOS1 protein was immediately monitored by flowing assay buffer over the sensor surface and monitoring the decrease in binding signal back to the baseline level seen in the absence of compound. This was repeated for all compound dilutions in each series. The binding level response for each test compound concentration was noted immediately prior to the end of the association phase, and a secondary plot generated showing binding response level versus test compound concentration generated for each compound dilution series.
# [2] = target: T1, SOS1 catalytic domain (residues 564-1049); assay: Mode of Action Assay: inhibition of SOS1 nucleotide exchange activity (SOS1 TR-FRET IC50 Assay)
# [3] = test system: PC-9 cells (EGFR Ex19Del); assay: Potency Assay: pERK (SOS1 pERK IC50 Assay, AlphaLISA SureFire Ultra p-ERK1/2); type: cell-based; conditions: Homo sapiens; PC-9 cells (EGFR Ex19Del), 1 hour incubation, AlphaLISA p-ERK1/2; read-out: SOS1 pERK IC50
# In short: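 PC-9 (EGFR Ex19Del) cells plated overnight, then treated 1 h at 37° C. with 10-point 3-fold dilutions (top 10 μM final) in duplicate. Lysate pERK1/2 measured by AlphaLISA SureFire Ultra; IC50 from 4-parameter sigmoidal fit.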
Kd [1] [nM],IC50 [2] [nM],IC50 [3] [nM],Compound
> 400,> 1000,,"Cc1nc2c(c(N[C@H](C)c3cc(N)cc(C(F)(F)F)c3)n1)CN(c1ccc(Br)cn1)C2 [Example 44, N-[(1R)-1-[3-amino-5-(trifluoromethyl)phenyl]ethyl]-6-(5-bromo-2-pyridyl)-2-methyl-5,7-dihydropyrrolo[3,4-d]pyrimidin-4-amine]"
> 400,> 1000,,C[C@@H](Nc1nc(Cl)nc2c1CN(S(=O)(=O)c1cn[nH]c1)C2)c1cc(N)cc(C(F)(F)F)c1 [Example 173]
> 400,> 1000,,COc1cccc(C(=O)N2Cc3nc(Cl)nc(N[C@H](C)c4cc(N)cc(C(F)(F)F)c4)c3C2)n1 [Example 67]
< 400,< 1000,,C[C@@H](Nc1nc(Cl)nc2c1CN(C(=O)N1CCNc3ncccc31)C2)c1cccc(C(F)F)c1F [Example 425]
< 400,< 1000,,"CC(Nc1nc(Cl)nc2c1CN(C(=O)N1CCOCC1)C2)c1cc(N)cc(C(F)(F)F)c1F (stereo not drawn) [Example 461, (4-((1-(5-amino-2-fluoro-3-(trifluoromethyl)phenyl)ethyl)amino)-2-chloro-5,7-dihydro-6H-pyrrolo[3,4-d]pyrimidin-6-yl)(morpholino)methanone]"
< 400,,,C[C@@H](Nc1nc(Cl)nc2c1CN(S(=O)(=O)N1CCNCC1)C2)c1cc(N)cc(C(F)(F)F)c1 [Example 28]
< 400,< 1000,,C[C@@H](Nc1nc(Cl)nc2c1CN(C(=O)N1CCNCC1C(F)(F)F)C2)c1cc(N)cc(C(F)(F)F)c1 (stereo partly drawn) [Example 358]
< 400,< 1000,,"COC1(C(=O)N2Cc3nc(C(F)(F)CN)nc(N[C@H](C)c4cccc(C(F)F)c4F)c3C2)CCOCC1 [Example 488, 2-(2-amino-1,1-difluoroethyl)-N-[(1R)-1-[3-(difluoromethyl)-2-fluorophenyl]ethyl]-6-(4-methoxyoxane-4-carbonyl)-5H,6H,7H-pyrrolo[3,4-d]pyrimidin-4-amine]"
< 400,< 1000,,COC[C@H]1CCCN1C(=O)N1Cc2nc(Cl)nc(N[C@H](C)c3cc(N)cc(C(F)(F)F)c3)c2C1 [Example 154]
> 400,> 1000,,COc1cncc(C(=O)N2Cc3nc(Cl)nc(N[C@H](C)c4cc(N)cc(C(F)(F)F)c4)c3C2)n1 [Example 69]
< 400,> 1000,,C[C@@H](Nc1nc(Cl)nc2c1CN(C(=O)c1cnn(C3CCOCC3)c1)C2)c1cc(N)cc(C(F)(F)F)c1 [Example 96]
< 400,< 1000,,C[C@@H](Nc1nc(Cl)nc2c1CN(C(=O)N1CCC(C)(O)CC1)C2)c1cc(N)cc(C(F)(F)F)c1 [Example 162]
> 400,> 1000,,Cc1nc2c(c(N[C@H](C)c3cc(N)cc(C(F)(F)F)c3)n1)CN(C)C2 [Example 43]
< 400,> 1000,,COc1cc(OC)nc(C(=O)N2Cc3nc(Cl)nc(N[C@H](C)c4cc(N)cc(C(F)(F)F)c4)c3C2)n1 [Example 63]
< 400,,,C[C@@H](Nc1nc(Cl)nc2c1CN(C(=O)N1CCc3ncncc3C1)C2)c1cc(N)cc(C(F)(F)F)c1 [Example 144]
> 400,< 1000,,C[C@@H](Nc1nc(Cl)nc2c1CN(C(=O)[C@H]1CC[C@@H](O)CC1)C2)c1cc(N)cc(C(F)(F)F)c1 [Example 99]
< 400,,,C[C@@H](Nc1nc(Cl)nc2c1CN(C(=O)N1CCC(O)CC1)C2)c1cc(N)cc(C(F)(F)F)c1 [Example 155]
> 400,> 1000,,C[C@@H](Nc1nc(Cl)nc2c1CN(C(=O)c1ccc3c(n1)OCCO3)C2)c1cc(N)cc(C(F)(F)F)c1 [Example 80]
< 400,< 1000,,COC1CN([C@H]2CCc3nc(Cl)nc(N[C@H](C)c4cc(N)cc(C(F)(F)F)c4)c3C2)C1 [Example 432]
< 400,< 1000,,C[C@@H](Nc1nc(Cl)nc2c1CN(C(=O)N1CCN(C)c3ncncc31)C2)c1cccc(C(F)F)c1F [Example 428]
> 400,,,C[C@@H](Nc1nc(Cl)nc2c1CN(S(=O)(=O)N1CC(C#N)C1)C2)c1cc(N)cc(C(F)(F)F)c1 [Example 26]

Kd [1] [nM],IC50 [2] [nM],IC50 [3] [nM],Compound
< 400,,,C[C@@H](Nc1nc(Cl)nc2c1CN(C(=O)N1C3CCC1COC3)C2)c1cc(N)cc(C(F)(F)F)c1 [Example 158]
> 400,> 1000,,C[C@@H](Nc1nc(Cl)nc2c1CN(C(=O)c1ccc(-n3ccnc3)cn1)C2)c1cc(N)cc(C(F)(F)F)c1 [Example 76]
< 400,< 1000,,C[C@@H](Nc1nc(Cl)nc2c1CN(C(=O)N1CCOc3ccncc31)C2)c1cc(N)cc(C(F)(F)F)c1 [Example 141]
< 400,,,C[C@@H](Nc1nc(Cl)nc2c1CN(C(=O)C1CC3(CNC3)C1)C2)c1cc(N)cc(C(F)(F)F)c1 [Example 98]
> 400,,,C[C@@H](Nc1nc(Cl)nc2c1CN(C(=O)c1cc3c(s1)CCOC3)C2)c1cc(N)cc(C(F)(F)F)c1 [Example 105]
< 400,,,C[C@@H]1COC[C@H](C)N1C(=O)N1Cc2nc(Cl)nc(N[C@H](C)c3cc(N)cc(C(F)(F)F)c3)c2C1 [Example 164]
< 400,,,C[C@@H](Nc1nc(Cl)nc2c1CN(C(=O)N1CC[C@H](O)C1)C2)c1cc(N)cc(C(F)(F)F)c1 [Example 161]
< 400,,,C[C@@H](Nc1nc(Cl)nc2c1CN(C(=O)C1(N)CCCOC1)C2)c1cc(N)cc(C(F)(F)F)c1 (stereo partly drawn) [Example 88]
< 400,,,C[C@@H](Nc1nc(Cl)nc2c1CN(C(=O)N1CCC(C)(N)CC1)C2)c1cc(N)cc(C(F)(F)F)c1 [Example 157]
< 400,,,C[C@@H](Nc1nc(Cl)nc2c1CN(C(=O)N1CC3(CCCO3)C1)C2)c1cc(N)cc(C(F)(F)F)c1 [Example 156]
< 400,,,C[C@@H](Nc1nc(Cl)nc2c1CN(C(=O)N1CC3CCC(C1)O3)C2)c1cc(N)cc(C(F)(F)F)c1 [Example 153]
< 400,,,C[C@@H](Nc1nc(Cl)nc2c1CN(C(=O)C1CC(=O)N(c3ccc4c(c3)OCO4)C1)C2)c1cc(N)cc(C(F)(F)F)c1 (stereo partly drawn) [Example 106]
< 400,,,C[C@@H](Nc1nc(Cl)nc2c1CN(C(=O)N1C[C@H]3COC[C@H]3C1)C2)c1cc(N)cc(C(F)(F)F)c1 [Example 149]
,< 1000,> 1000,"C[C@@H](Nc1nc(Cl)nc2c1CN(C(=O)N1CCOCC1)C2)c1cccc(C(F)(F)OC2CC2)c1 [Example 524, 2-chloro-N-[(1R)-1-[3-(cyclopropoxydifluoromethyl)phenyl]ethyl]-6-(morpholine-4-carbonyl)-5H,6H,7H-pyrrolo[3,4-d]pyrimidin-4-amine]"
< 400,,,"C[C@@H](Nc1nccc2nc(C(=O)N3CCNCC3)cn12)c1cccc(C(F)F)c1F [Example 530, [5-[[(1R)-1-[3-(difluoromethyl)-2-fluoro-phenyl]ethyl]amino]imidazo[1,2-c]pyrimidin-2-yl]-piperazin-1-yl-methanone hydrochloride]"
,> 1000,> 1000,COC1CCC(C(=O)N2CCc3nc(Cl)nc(N[C@H](C)c4cc(N)cc(C(F)(F)F)c4)c3C2)C1 (stereo partly drawn) [Example 199]
,< 1000,> 1000,COc1cccc(C(=O)N2CCc3nc(Cl)nc(N[C@H](C)c4cc(N)cc(C(F)(F)F)c4)c3C2)n1 [Example 242]
,> 1000,> 1000,"C[C@@H](Nc1ncnc2c1CN(CC1CCOC1)C2)c1cc(N)cc(C(F)(F)F)c1 (stereo partly drawn) [Example 54, N-[(1R)-1-[3-amino-5-(trifluoromethyl)phenyl]ethyl]-6-(tetrahydrofuran-3-ylmethyl)-5,7-dihydropyrrolo[3,4-d]pyrimidin-4-amine]"
< 400,,,C[C@@H](Nc1nc(Cl)nc2c1CN(C(=O)C1CC3(CCNCC3)C1)C2)c1cc(N)cc(C(F)(F)F)c1 [Example 79]
> 400,,,"COC(=O)N1Cc2nc(C)nc(N[C@H](C)c3cc(N)cc(C(F)(F)F)c3)c2C1 [Example 117, methyl 4-{[(1R)-1-[3-amino-5-(trifluoromethyl)phenyl]ethyl]amino}-2-methyl-5H,6H,7H-pyrrolo[3,4-d]pyrimidine-6-carboxylate]"
,> 1000,> 1000,C[C@@H](Nc1nc(Cl)nc2c1CN(C(=O)C1(C#N)CCC1)CC2)c1cc(N)cc(C(F)(F)F)c1 [Example 202]
